{
  "source": "PubChem BioAssay AID1918955",
  "about": "(Molecular Pharmacology Branch, DTP, NCI, 2023)",
  "system": "NCI/ADR-RES complex spheroid viability",
  "assay": "Anticancer human tumor NCI/ADR-RES cell line growth inhibition;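 as to viability, T/C: 100% = DMSO vehicle treated spheroids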",
  "details": "for viability, T/C: stronger effect = lower value",
  "procedure,_shortened": "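Complex spheroids of tumor cells with HUVEC and human MSCs, exposed to iadademstat combined with other agents. Each agent tested in half-log steps from near clinical Cmax (else 10 microM top), DMSO ≤0.25%.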",
  "key": {"[1]": {"details": "curve of first compound, second compound 0.1 µM"}, "[2]": {"details": "curve of first compound, second compound 0.316 µM"}, "[3]": {"details": "curve of first compound, second compound 1 µM"}, "[4]": {"details": "curve of first compound, second compound 3.16 µM"}, "[5]": {"details": "curve of first compound, second compound 10 µM"}, "[6]": {"details": "second compound 0.1 µM, first compound 0.000316 µM"}, "[7]": {"details": "second compound 0.1 µM, first compound 0.001 µM"}, "[8]": {"details": "second compound 0.1 µM, first compound 0.00316 µM"}, "[9]": {"details": "second compound 0.1 µM, first compound 0.01 µM"}, "[10]": {"details": "second compound 0.1 µM, first compound 0.0316 µM"}, "[11]": {"details": "second compound 0.1 µM, first compound 0.1 µM"}, "[12]": {"details": "second compound 0.316 µM, first compound 0.000316 µM"}, "[13]": {"details": "second compound 0.316 µM, first compound 0.001 µM"}, "[14]": {"details": "second compound 0.316 µM, first compound 0.00316 µM"}, "[15]": {"details": "second compound 0.316 µM, first compound 0.01 µM"}, "[16]": {"details": "second compound 0.316 µM, first compound 0.0316 µM"}, "[17]": {"details": "second compound 0.316 µM, first compound 0.1 µM"}, "[18]": {"details": "second compound 1 µM, first compound 0.000316 µM"}, "[19]": {"details": "second compound 1 µM, first compound 0.001 µM"}, "[20]": {"details": "second compound 1 µM, first compound 0.00316 µM"}, "[21]": {"details": "second compound 1 µM, first compound 0.01 µM"}, "[22]": {"details": "second compound 1 µM, first compound 0.0316 µM"}, "[23]": {"details": "second compound 1 µM, first compound 0.1 µM"}, "[24]": {"details": "second compound 3.16 µM, first compound 0.000316 µM"}, "[25]": {"details": "second compound 3.16 µM, first compound 0.001 µM"}, "[26]": {"details": "second compound 3.16 µM, first compound 0.00316 µM"}, "[27]": {"details": "second compound 3.16 µM, first compound 0.01 µM"}, "[28]": {"details": "second compound 3.16 µM, first compound 0.0316 µM"}, "[29]": {"details": "second compound 3.16 µM, first compound 0.1 µM"}, "[30]": {"details": "second compound 10 µM, first compound 0.000316 µM"}, "[31]": {"details": "second compound 10 µM, first compound 0.001 µM"}, "[32]": {"details": "second compound 10 µM, first compound 0.00316 µM"}, "[33]": {"details": "second compound 10 µM, first compound 0.01 µM"}, "[34]": {"details": "second compound 10 µM, first compound 0.0316 µM"}, "[35]": {"details": "second compound 10 µM, first compound 0.1 µM"}},
  "note": "Where “and” joins values, the source holds several entries; their conditions need not be identical. Identical values can stand only once.",
  "data": [
    {"compound": "CC[C@@]1(O)C(=O)OCc2c1cc1n(c2=O)Cc2cc3c(CN(C)C)c(O)ccc3nc2-1", "note": "+ NC1CCC(NC2CC2c2ccccc2)CC1", "values": [
      {"measurement": "IC50", "setting": "[1]", "result": 8.31, "unit": "nM"},
      {"measurement": "IC50", "setting": "[2]", "result": 8.18, "unit": "nM"},
      {"measurement": "IC50", "setting": "[3]", "result": 9.09, "unit": "nM"},
      {"measurement": "IC50", "setting": "[4]", "result": 7.45, "unit": "nM"},
      {"measurement": "IC50", "setting": "[5]", "result": 5.56, "unit": "nM"},
      {"measurement": "viability, T/C", "setting": "[6]", "result": 104, "unit": "%"},
      {"measurement": "viability, T/C", "setting": "[7]", "result": 97.8, "unit": "%"},
      {"measurement": "viability, T/C", "setting": "[8]", "result": 86.5, "unit": "%"},
      {"measurement": "viability, T/C", "setting": "[9]", "result": 43.4, "unit": "%"},
      {"measurement": "viability, T/C", "setting": "[10]", "result": 9.03, "unit": "%"},
      {"measurement": "viability, T/C", "setting": "[11]", "result": 3.21, "unit": "%"},
      {"measurement": "viability, T/C", "setting": "[12]", "result": 118, "unit": "%"},
      {"measurement": "viability, T/C", "setting": "[13]", "result": 116, "unit": "%"},
      {"measurement": "viability, T/C", "setting": "[14]", "result": 86.7, "unit": "%"},
      {"measurement": "viability, T/C", "setting": "[15]", "result": 42.9, "unit": "%"},
      {"measurement": "viability, T/C", "setting": "[16]", "result": 10.8, "unit": "%"},
      {"measurement": "viability, T/C", "setting": "[17]", "result": 2.57, "unit": "%"},
      {"measurement": "viability, T/C", "setting": "[18]", "result": 103, "unit": "%"},
      {"measurement": "viability, T/C", "setting": "[19]", "result": 103, "unit": "%"},
      {"measurement": "viability, T/C", "setting": "[20]", "result": 92.9, "unit": "%"},
      {"measurement": "viability, T/C", "setting": "[21]", "result": 46.2, "unit": "%"},
      {"measurement": "viability, T/C", "setting": "[22]", "result": 8.05, "unit": "%"},
      {"measurement": "viability, T/C", "setting": "[23]", "result": 2.63, "unit": "%"},
      {"measurement": "viability, T/C", "setting": "[24]", "result": 108, "unit": "%"},
      {"measurement": "viability, T/C", "setting": "[25]", "result": 98.8, "unit": "%"},
      {"measurement": "viability, T/C", "setting": "[26]", "result": 91.3, "unit": "%"},
      {"measurement": "viability, T/C", "setting": "[27]", "result": 35.6, "unit": "%"},
      {"measurement": "viability, T/C", "setting": "[28]", "result": 10.1, "unit": "%"},
      {"measurement": "viability, T/C", "setting": "[29]", "result": 4.55, "unit": "%"},
      {"measurement": "viability, T/C", "setting": "[30]", "result": 98.5, "unit": "%"},
      {"measurement": "viability, T/C", "setting": "[31]", "result": 95.3, "unit": "%"},
      {"measurement": "viability, T/C", "setting": "[32]", "result": 66.8, "unit": "%"},
      {"measurement": "viability, T/C", "setting": "[33]", "result": 32, "unit": "%"},
      {"measurement": "viability, T/C", "setting": "[34]", "result": 7.06, "unit": "%"},
      {"measurement": "viability, T/C", "setting": "[35]", "result": 2.23, "unit": "%"}
    ]},
    {"compound": "Cn1ncnc1C1c2n[nH]c(=O)c3cc(F)cc(c23)NC1c1ccc(F)cc1", "note": "(centres undefined) + NC1CCC(NC2CC2c2ccccc2)CC1", "values": [
      {"measurement": "IC50", "setting": "[1]", "result": "> 100", "unit": "nM"},
      {"measurement": "IC50", "setting": "[2]", "result": "> 100", "unit": "nM"},
      {"measurement": "IC50", "setting": "[3]", "result": "> 100", "unit": "nM"},
      {"measurement": "IC50", "setting": "[4]", "result": "> 100", "unit": "nM"},
      {"measurement": "IC50", "setting": "[5]", "result": "> 100", "unit": "nM"},
      {"measurement": "viability, T/C", "setting": "[6]", "result": 110, "unit": "%"},
      {"measurement": "viability, T/C", "setting": "[7]", "result": 108, "unit": "%"},
      {"measurement": "viability, T/C", "setting": "[8]", "result": 110, "unit": "%"},
      {"measurement": "viability, T/C", "setting": "[9]", "result": 103, "unit": "%"},
      {"measurement": "viability, T/C", "setting": "[10]", "result": 103, "unit": "%"},
      {"measurement": "viability, T/C", "setting": "[11]", "result": 96.6, "unit": "%"},
      {"measurement": "viability, T/C", "setting": "[12]", "result": 109, "unit": "%"},
      {"measurement": "viability, T/C", "setting": "[13]", "result": 106, "unit": "%"},
      {"measurement": "viability, T/C", "setting": "[14]", "result": 102, "unit": "%"},
      {"measurement": "viability, T/C", "setting": "[15]", "result": 102, "unit": "%"},
      {"measurement": "viability, T/C", "setting": "[16]", "result": 104, "unit": "%"},
      {"measurement": "viability, T/C", "setting": "[17]", "result": 103, "unit": "%"},
      {"measurement": "viability, T/C", "setting": "[18]", "result": 105, "unit": "%"},
      {"measurement": "viability, T/C", "setting": "[19]", "result": 109, "unit": "%"},
      {"measurement": "viability, T/C", "setting": "[20]", "result": 105, "unit": "%"},
      {"measurement": "viability, T/C", "setting": "[21]", "result": 104, "unit": "%"},
      {"measurement": "viability, T/C", "setting": "[22]", "result": 102, "unit": "%"},
      {"measurement": "viability, T/C", "setting": "[23]", "result": 98, "unit": "%"},
      {"measurement": "viability, T/C", "setting": "[24]", "result": 106, "unit": "%"},
      {"measurement": "viability, T/C", "setting": "[25]", "result": 109, "unit": "%"},
      {"measurement": "viability, T/C", "setting": "[26]", "result": 104, "unit": "%"},
      {"measurement": "viability, T/C", "setting": "[27]", "result": 109, "unit": "%"},
      {"measurement": "viability, T/C", "setting": "[28]", "result": 101, "unit": "%"},
      {"measurement": "viability, T/C", "setting": "[29]", "result": 105, "unit": "%"},
      {"measurement": "viability, T/C", "setting": "[30]", "result": 89.4, "unit": "%"},
      {"measurement": "viability, T/C", "setting": "[31]", "result": 95.9, "unit": "%"},
      {"measurement": "viability, T/C", "setting": "[32]", "result": 102, "unit": "%"},
      {"measurement": "viability, T/C", "setting": "[33]", "result": 92.9, "unit": "%"},
      {"measurement": "viability, T/C", "setting": "[34]", "result": 89.8, "unit": "%"},
      {"measurement": "viability, T/C", "setting": "[35]", "result": 84.5, "unit": "%"}
    ]},
    {"compound": "CCN(c1cc(-c2ccc(CN3CCOCC3)cc2)cc(C(=O)NCc2c(C)cc(C)[nH]c2=O)c1C)C1CCOCC1", "values": [
      {"measurement": "viability, T/C", "setting": "compound 0.00949 µM", "result": "99.6% and 106%"},
      {"measurement": "viability, T/C", "setting": "compound 0.03 µM", "result": "98.7% and 102%"},
      {"measurement": "viability, T/C", "setting": "compound 0.0949 µM", "result": "98.2% and 104%"},
      {"measurement": "viability, T/C", "setting": "compound 0.3 µM", "result": "99% and 97.8%"},
      {"measurement": "viability, T/C", "setting": "compound 0.949 µM", "result": "91.6% and 97.3%"},
      {"measurement": "viability, T/C", "setting": "compound 3 µM", "result": "86.3% and 88%"},
      {"measurement": "IC50", "setting": "curve of compound", "result": "> 3000", "unit": "nM"}
    ]},
    {"compound": "CC1COCCN1c1cc(-c2ccnn2C)c2ccnc(-c3ccn[nH]3)c2n1", "note": "(centres undefined)", "values": [
      {"measurement": "viability, T/C", "setting": "compound 0.00316 µM", "result": "89.5% and 71.9%"},
      {"measurement": "viability, T/C", "setting": "compound 0.01 µM", "result": "61.3% and 41.6%"},
      {"measurement": "viability, T/C", "setting": "compound 0.0316 µM", "result": "11.2% and 7.14%"},
      {"measurement": "viability, T/C", "setting": "compound 0.1 µM", "result": "3.93% and 1.95%"},
      {"measurement": "viability, T/C", "setting": "compound 0.316 µM", "result": "2.2% and 2.13%"},
      {"measurement": "viability, T/C", "setting": "compound 1 µM", "result": "4.12% and 1.96%"},
      {"measurement": "IC50", "setting": "curve of compound", "result": "13 nM and 7.27 nM"}
    ]}
  ]
}
